The test system of this test is fibrosarcoma cell line. Kind of test: screening model for ferroptosis, MTT cell viability assay with ferroptosis inducer Erastin. Format: cell-based. The following applies: Erastin 10 μM; 72 h; average of three tests. The method, then:
In this example, in order to study the inhibitor of ferroptosis, a screening model for ferroptosis was constructed in house, and the details are as follows:
The screening model for ferroptosis mainly used the MTT cell viability assay. First, the fibrosarcoma cell line was cultured in a dish, and the cells in the logarithmic growth phase were seeded in a 96-well plate in specific numbers (3000-10000 cells/well), 100 μL per well, and then cultured in an incubator at 37° C. and 5% CO2 to allow the cells to adhere. After 24 h, 100 μL of compounds at certain concentrations prepared in the indicated medium and the ferroptosis inducer Erastin (final concentration of 10 μM) were added, and wells in triplicate were set up for each compound to ensure the accuracy of the results. A negative control group, positive control group (5 μM of ferrostain-1), blank control group and solvent control group were also set. After dosing, cells were placed in the incubator and cultured for 72h. […] The next day, the absorbance value at 570 nm was detected with a microplate reader to calculate the inhibition rate of the drug on ferroptosis. Generally, the absorbance value of the control group should be between 0.8-1.2 as a normal value. After obtaining the absorbance value data, the average value of wells in triplicate was calculated, and the inhibition rate was calculated using the following formula: […]
(Formazan colour is commonly taken as a measure of viable cells.)

Broadly, the EC50 is the midpoint of the concentration-response curve. A high value points to weaker potency.

`C=C(c1ccc2c(c1)Nc1ccccc1S2)c1cnc2c(cnn2C)c1` [Compound 28] returned an EC50 of 58 nM.
